Paper PMC11537071, “Identification and characterization of a carbohydrate recognition domain-like region in Entamoeba histolytica Gal/GalNAc lectin intermediate subunit” (Microbiology Spectrum, 2024)

Experiments:
Igl-C = molecular target: T1, Igl-C (Entamoeba histolytica, UniProt Q964D2); assay: competition with FITC-PNA on Caco-2 cells; assay type: cell-based; details: 60 mM sugar, 300 nM protein, on ice
T1 construct: gene igl1; C-terminal segment, 486 aa (contains Igl-C0 to C3, ends at about residue 1,088), His-tagged, pET-19b, E. coli BL21 Star(DE3)pLysS
T1 sequence (Q964D2 entry or part of it): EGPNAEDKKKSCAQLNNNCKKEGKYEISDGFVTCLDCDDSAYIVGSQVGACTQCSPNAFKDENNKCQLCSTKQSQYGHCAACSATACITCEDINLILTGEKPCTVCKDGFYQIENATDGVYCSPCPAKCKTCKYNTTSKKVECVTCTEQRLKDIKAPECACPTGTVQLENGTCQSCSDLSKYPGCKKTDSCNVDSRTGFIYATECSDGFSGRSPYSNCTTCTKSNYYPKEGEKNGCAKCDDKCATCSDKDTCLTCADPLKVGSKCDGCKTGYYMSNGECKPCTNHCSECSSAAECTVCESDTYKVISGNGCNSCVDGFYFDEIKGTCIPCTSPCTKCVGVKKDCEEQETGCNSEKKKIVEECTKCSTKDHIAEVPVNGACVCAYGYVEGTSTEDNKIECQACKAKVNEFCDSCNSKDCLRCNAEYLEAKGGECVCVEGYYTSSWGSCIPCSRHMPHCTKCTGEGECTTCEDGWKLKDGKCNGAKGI

Igl-C3 = molecular target: T2, Igl-C3 (Entamoeba histolytica, UniProt Q964D2); assay: competition with FITC-PNA on Caco-2 cells; hemagglutination inhibition; assay type: cell-based; details: 60 mM sugar, 300 nM protein, on ice; also hemagglutination of human group O erythrocytes
T2 construct: gene igl1; CRD-like region, residues 989-1,088 (100 aa), His-tagged, pET-19b, E. coli BL21 Star(DE3)pLysS
T2 sequence (Q964D2 entry or part of it): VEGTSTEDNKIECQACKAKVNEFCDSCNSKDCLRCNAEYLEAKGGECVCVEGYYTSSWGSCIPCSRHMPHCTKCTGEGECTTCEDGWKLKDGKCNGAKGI

| Compound | competition with FITC-PNA on Caco-2 cells (Igl-C) | competition with FITC-PNA on Caco-2 cells; hemagglutination inhibition (Igl-C3) |
| --- | --- | --- |
| OC[C@H]1OC(O)[C@H](O)[C@@H](O)[C@H]1O (stereo partly shown) [Gal, galactose] | this competitive process could in turn be weakened by the addition of Gal and GalNAc | only Igl-C3 exhibited obvious hemagglutinating activity, which could be inhibited by Gal/GalNAc |
| CC(=O)N[C@H]1C(O)O[C@H](CO)[C@H](O)[C@@H]1O (stereo partly drawn) [GalNAc, N-acetyl-D-galactosamine] | this competitive process could in turn be weakened by the addition of Gal and GalNAc | only Igl-C3 exhibited obvious hemagglutinating activity, which could be inhibited by Gal/GalNAc |
